The supplement of paper PMC6045584
± gives the standard deviation of the averaged measurements.

Assays:
[1] = compound: CCCS(=O)(=O)Nc1ccc(F)c(C(=O)c2c[nH]c3ncc(Cl)cc23)c1F [PLX-4720]; assay: surviving fraction relative to DMSO-only wells; higher = less growth inhibition; details: exposure time: 5 days
Procedure, shortened: (§1)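 Log-phase tumour cell lines were seeded at 250–500 cells per well in 384-well plates. After 24 hours they were exposed continuously for five days to inhibitors at 0.5, 1, 5, 10, 50, 100, 500 and 1000 nM. Viability was read by CellTiter-Glo luminescence after 10 minutes at room temperature, and surviving fraction is luminescence normalised to the median of DMSO-only wells. Each line was screened three times and kept only if replicate Pearson r >0.7 and median Z' >0.3.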

[2] = compound: CO[C@H]1C[C@@H]2CC[C@@H](C)[C@@](O)(O2)C(=O)C(=O)N2CCCC[C@H]2C(=O)O[C@H]([C@H](C)C[C@@H]2CC[C@@H](OCCO)[C@H](OC)C2)CC(=O)[C@H](C)/C=C(\C)[C@@H](O)[C@@H](OC)C(=O)[C@H](C)C[C@H](C)/C=C/C=C/C=C/1C [EVEROLIMUS]; assay: as above; details: exposure time: 5 days
Procedure, shortened: as §1

With C33A CERVIX the surviving fraction ([1]; 0.5 nM) was 1.03 ± 0.18, the surviving fraction ([1]; 1 nM) was 0.994 ± 0.044 and the surviving fraction ([1]; 5 nM) was 1.12 ± 0.14. It also gave a surviving fraction ([1]; 10 nM) of 1.13 ± 0.045, a surviving fraction ([1]; 50 nM) of 1.01 ± 0.17 and a surviving fraction ([1]; 100 nM) of 1.05 ± 0.13. For the same test system, the surviving fraction ([1]; 500 nM) was 0.946 ± 0.1, the surviving fraction ([1]; 1000 nM) was 1.06 ± 0.13 and the surviving fraction ([2]; 0.5 nM) was 0.757 ± 0.058. For the same test system, the surviving fraction ([2]; 1 nM) was 0.649 ± 0.06, the surviving fraction ([2]; 5 nM) was 0.469 ± 0.017 and the surviving fraction ([2]; 10 nM) was 0.432 ± 0.0057. For the same test system, the surviving fraction ([2]; 50 nM) was 0.355 ± 0.027, the surviving fraction ([2]; 100 nM) was 0.369 ± 0.028 and the surviving fraction ([2]; 500 nM) was 0.303 ± 0.051. It also gave a surviving fraction ([2]; 1000 nM) of 0.277 ± 0.015.
In the case of CAL72 BONE, the surviving fraction ([1]; 0.5 nM) is reported as 0.969 ± 0.041, the surviving fraction ([1]; 1 nM) is reported as 1.02 ± 0.036 and the surviving fraction ([1]; 5 nM) is reported as 0.964 ± 0.015. For the same test system, the surviving fraction ([1]; 10 nM) was 1.03 ± 0.035, the surviving fraction ([1]; 50 nM) was 1.076 ± 0.006 and the surviving fraction ([1]; 100 nM) was 1.104 ± 0.011. For the same test system, the surviving fraction ([1]; 500 nM) was 1.09 ± 0.04, the surviving fraction ([1]; 1000 nM) was 1.08 ± 0.036 and the surviving fraction ([2]; 0.5 nM) was 0.967 ± 0.17. It also gave a surviving fraction ([2]; 1 nM) of 0.87 ± 0.16, a surviving fraction ([2]; 5 nM) of 0.707 ± 0.12 and a surviving fraction ([2]; 10 nM) of 0.671 ± 0.1. The surviving fraction ([2]; 50 nM) was 0.61 ± 0.056, the surviving fraction ([2]; 100 nM) was 0.641 ± 0.057 and the surviving fraction ([2]; 500 nM) was 0.576 ± 0.028. The surviving fraction ([2]; 1000 nM) was 0.608 ± 0.026.
G292 BONE was tested, and the surviving fraction ([1]; 0.5 nM) was 0.893 ± 0.022, the surviving fraction ([1]; 1 nM) was 0.977 ± 0.042 and the surviving fraction ([1]; 5 nM) was 0.973 ± 0.039. The surviving fraction ([1]; 10 nM) was 0.972 ± 0.043, the surviving fraction ([1]; 50 nM) was 0.956 ± 0.024 and the surviving fraction ([1]; 100 nM) was 1.0012 ± 0.00029. The surviving fraction ([1]; 500 nM) was 0.979 ± 0.026, the surviving fraction ([1]; 1000 nM) was 0.973 ± 0.085 and the surviving fraction ([2]; 0.5 nM) was 0.803 ± 0.0075. It also gave a surviving fraction ([2]; 1 nM) of 0.721 ± 0.038, a surviving fraction ([2]; 5 nM) of 0.518 ± 0.015 and a surviving fraction ([2]; 10 nM) of 0.476 ± 0.024. The surviving fraction ([2]; 50 nM) was 0.433 ± 0.0098, the surviving fraction ([2]; 100 nM) was 0.436 ± 0.014 and the surviving fraction ([2]; 500 nM) was 0.408 ± 0.015. It also gave a surviving fraction ([2]; 1000 nM) of 0.405 ± 0.01.
With HUO3N1 BONE the surviving fraction ([1]; 0.5 nM) was 0.849 ± 0.014, the surviving fraction ([1]; 1 nM) was 0.886 ± 0.035 and the surviving fraction ([1]; 5 nM) was 0.92 ± 0.055. For the same test system, the surviving fraction ([1]; 10 nM) was 0.913 ± 0.042, the surviving fraction ([1]; 50 nM) was 0.989 ± 0.028 and the surviving fraction ([1]; 100 nM) was 1.02 ± 0.059. For the same test system, the surviving fraction ([1]; 500 nM) was 1.01 ± 0.063, the surviving fraction ([1]; 1000 nM) was 1.01 ± 0.067 and the surviving fraction ([2]; 0.5 nM) was 0.751 ± 0.021. The surviving fraction ([2]; 1 nM) was 0.688 ± 0.011, the surviving fraction ([2]; 5 nM) was 0.655 ± 0.013 and the surviving fraction ([2]; 10 nM) was 0.632 ± 0.016. For the same test system, the surviving fraction ([2]; 50 nM) was 0.624 ± 0.043, the surviving fraction ([2]; 100 nM) was 0.617 ± 0.042 and the surviving fraction ([2]; 500 nM) was 0.581 ± 0.031. The surviving fraction ([2]; 1000 nM) was 0.607 ± 0.023.
LNCAP PROSTATE was tested, and the surviving fraction ([1]; 0.5 nM) was 1.17 ± 0.08, the surviving fraction ([1]; 1 nM) was 1.08 ± 0.051 and the surviving fraction ([1]; 5 nM) was 1.15 ± 0.097. For the same test system, the surviving fraction ([1]; 10 nM) was 1.12 ± 0.035, the surviving fraction ([1]; 50 nM) was 0.892 ± 0.11 and the surviving fraction ([1]; 100 nM) was 0.846 ± 0.011. The surviving fraction ([1]; 500 nM) was 0.898 ± 0.09, the surviving fraction ([1]; 1000 nM) was 1.03 ± 0.12 and the surviving fraction ([2]; 0.5 nM) was 0.679 ± 0.048. For the same test system, the surviving fraction ([2]; 1 nM) was 0.544 ± 0.012, the surviving fraction ([2]; 5 nM) was 0.409 ± 0.033 and the surviving fraction ([2]; 10 nM) was 0.404 ± 0.043. The surviving fraction ([2]; 50 nM) was 0.285 ± 0.032, the surviving fraction ([2]; 100 nM) was 0.288 ± 0.0055 and the surviving fraction ([2]; 500 nM) was 0.219 ± 0.0032. For the same test system, the surviving fraction ([2]; 1000 nM) was 0.222 ± 0.0092.
In the case of SCC003 HEADNECK, the surviving fraction ([1]; 0.5 nM) is reported as 0.76 ± 0.094, the surviving fraction ([1]; 1 nM) is reported as 0.825 ± 0.065 and the surviving fraction ([1]; 5 nM) is reported as 0.829 ± 0.14. For the same test system, the surviving fraction ([1]; 10 nM) was 0.81 ± 0.11, the surviving fraction ([1]; 50 nM) was 0.983 ± 0.06 and the surviving fraction ([1]; 100 nM) was 1.02 ± 0.034. The surviving fraction ([1]; 500 nM) was 1.01 ± 0.035, the surviving fraction ([1]; 1000 nM) was 1.02 ± 0.17 and the surviving fraction ([2]; 0.5 nM) was 1.07 ± 0.043. It also gave a surviving fraction ([2]; 1 nM) of 1 ± 0.04, a surviving fraction ([2]; 5 nM) of 1.04 ± 0.035 and a surviving fraction ([2]; 10 nM) of 0.961 ± 0.036. The surviving fraction ([2]; 50 nM) was 0.953 ± 0.037, the surviving fraction ([2]; 100 nM) was 0.94 ± 0.094 and the surviving fraction ([2]; 500 nM) was 0.923 ± 0.066. The surviving fraction ([2]; 1000 nM) was 0.92 ± 0.061.
